Assays:
[1] = test system: 5xFAD transgenic mice; assay: Morris Water Maze test in 5xFAD transgenic mice; format: in vivo; details: 5xFAD mice; for Latency to platform: 15 mg/kg intraperitoneal
Text: As part of the in vivo testing of the biological activity of the leader compound, a transgenic mouse model with Alzheimer’s disease 5xFAD at the age of 13 months was used. This line expresses two human genes: APP (amyloid peptide precursor protein gene) with three types of mutations (Swedish (K670N, M671L), Florida (I716V) and London (V717I)), as well as the presenilin 1 gene with mutations (M146L and L286V) characteristic of this disease. Clinically healthy wildtype single-litter mice C57Bl6/j (n = 8) were used as a control group. Transgenic 5xFAD mice were randomly divided into two groups: (1) animals receiving intraperitoneal injections of hydroxamic acid 35a at a dose of 15 mg/kg (10% DMSO + NaCl) for three weeks—the 5xFAD + 35a group (n = 8) and (2) mice receiving an equivalent volume of solvent—the group 5xFAD (n = 8). All animals were kept in standard vivarium conditions at a temperature of 22 ± 1 °C and a humidity of 55% indoors with a 12-h light–dark cycle. The animals had no restrictions in the consumption of water and food. The study of the neurobehavioral profile was started on the 15th day of the experiment.
The Morris Water Maze test was performed for five consecutive days to assess the formation of spatial learning and memory dependent on the hippocampus.
The installation consisted of a pool (Open Science, Moscow, Russia) with a diameter of 150 cm, filled to a depth of 40 cm with water (22 ± 1 °C). The lighting conditions were as follows: the dark side of the pool—50 lux; the light side—75 lux. […]
Testing was carried out according to a standard protocol, where for the first four days mice were placed in a pool with a platform hidden under water (1.5 cm below the water surface) in one of the quadrants of the pool. […] To do this, the animals were placed in the pool for 90 s and a number of indicators of the neurobehavioral profile were recorded.
All experimental attempts in the Morris water maze were recorded on a camera capturing video images from above the pool, which were processed using EthoVision software.

[2] = test system: 5xFAD transgenic mice brain; assay: MDA level in brain samples (TBA test); format: in vivo; details: 21-day administration, 15 mg/kg; p = 0.001 vs 5xFAD
Text: As part of the in vivo testing of the biological activity of the leader compound, a transgenic mouse model with Alzheimer’s disease 5xFAD at the age of 13 months was used. This line expresses two human genes: APP (amyloid peptide precursor protein gene) with three types of mutations (Swedish (K670N, M671L), Florida (I716V) and London (V717I)), as well as the presenilin 1 gene with mutations (M146L and L286V) characteristic of this disease. Clinically healthy wildtype single-litter mice C57Bl6/j (n = 8) were used as a control group. […]
To determine the level of malondialdehyde in the brain of animals, the samples were homogenized in a buffer solution and subjected to a centrifugation procedure at 12,000 rpm for 10 min at 4 °C, after which the infusion fluid was collected for subsequent analysis. Quantitative determination of the protein was carried out as described earlier.
The content of malondialdehyde was determined using a modified TBA test. […] The optical density of the selected suprasetting fluid was measured using a multifunctional Cytation™3 flatbed analyzer (BioTek Instruments, Inc., Winooski, VT, USA) at λ = 540 nm.

For `C=C(C)[C@@H]1CC=C(CNC(=O)/C=C/c2ccc(C(=O)NO)cc2)CC1` [Compound 35a, (S,E)-N-hydroxy-4-(3-oxo-3-(((4-(prop-1-en-2-yl)cyclohex-1-en-1-yl)methyl)amino)prop-1-en-1-yl)benzamide], the Latency to platform ([1]; first day of training) was 55.70 ± 2.10 s, the Latency to platform ([1]; fourth day of training, p = 0.039 vs day 1) was 40.93 ± 5.47 s and the “number of entrances to the target quadrant, Probe trial” value ([1]; 15 mg/kg, fifth day, p = 0.203 vs C57Bl6/j) was “same number of entrances to the target quadrant of the maze was found with the control group”. The “MDA level in brain (increase in 5xFAD mice)” value [2] was “reversed”.
